From patent publication US20220396569A1 (Carmot Therapeutics, Inc., priority 2021, published 2022)

molecular target: T1, human GLP-1 receptor (Homo sapiens, UniProt P43220); test: GLP-1R cAMP Assay (HitHunter cAMP accumulation); assay type: cell-based; details: cAMP accumulation, CHO cells stably overexpressing human GLP-1 receptor, 30 min treatment; read-out: EC50
T1 construct: expressed in transfected cells
Summary of the method: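 CHO cells stably expressing human GLP-1R, 10,000 cells/well in HBSS with 10 mM HEPES and 625 μM IBMX, were mixed with anti-cAMP antibody reagent. Compound was applied as a 20-point dose response in triplicate for 30 min. After lysis and overnight detection, luminescence was read and dose-response curves analysed.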

T1 sequence (P43220 24-463): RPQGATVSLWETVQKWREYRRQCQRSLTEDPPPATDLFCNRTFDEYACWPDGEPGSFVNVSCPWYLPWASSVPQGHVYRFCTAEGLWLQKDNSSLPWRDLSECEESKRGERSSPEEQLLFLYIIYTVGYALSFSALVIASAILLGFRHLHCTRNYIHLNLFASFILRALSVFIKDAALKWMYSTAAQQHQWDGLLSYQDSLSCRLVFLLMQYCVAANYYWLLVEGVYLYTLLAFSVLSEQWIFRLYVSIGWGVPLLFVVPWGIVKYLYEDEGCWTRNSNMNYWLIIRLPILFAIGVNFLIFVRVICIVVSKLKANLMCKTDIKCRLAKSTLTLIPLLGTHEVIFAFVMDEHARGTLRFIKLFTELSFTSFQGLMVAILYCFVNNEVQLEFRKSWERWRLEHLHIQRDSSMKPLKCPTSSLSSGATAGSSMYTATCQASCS

| Compound | EC50 |
| --- | --- |
| N#CCC1(Cn2c(CN3CC[C@H](c4ccnc(COc5ccc(Cl)cc5F)c4)C3)nc3ccc(C(=O)O)cc32)CC1 [Compound 433, 2-{[(3R)-3-{2-[(4-chloro-2-fluorophenoxy)methyl]pyridin-4-yl}pyrrolidin-1-yl]methyl}-1-{[1-(cyanomethyl)cyclopropyl]methyl}-1H-1,3-benzodiazole-6-carboxylic acid] | 50 to 500 nM |
| N#CCC1(Cn2c(CN3CC[C@H](c4ccnc(COc5ccc(Cl)cc5F)c4)C3)nc3c(F)cc(C(=O)O)cc32)CC1 [Compound 434, 2-{[(3R)-3-{2-[(4-chloro-2-fluorophenoxy)methyl]pyridin-4-yl}pyrrolidin-1-yl]methyl}-1-{[1-(cyanomethyl)cyclopropyl]methyl}-4-fluoro-1H-1,3-benzodiazole-6-carboxylic acid] | 50 to 500 nM |
| N#Cc1ccc(OCc2cc([C@H]3CCN(Cc4nc5ccc(C(=O)O)cc5n4C[C@@H]4CCO4)C3)ccc2F)c(F)c1 [Compound 439, 2-{[(3R)-3-{3-[(4-cyano-2-fluorophenoxy)methyl]-4-fluorophenyl}pyrrolidin-1-yl]methyl}-1-{[(2S)-oxetan-2-yl]methyl}-1H-1,3-benzodiazole-6-carboxylic acid] | 50 to 500 nM |
| O=C(O)c1ccc2nc(CN3CC=C(c4cc(COc5ccc(Cl)cc5F)ncc4F)C3)n(C[C@@H]3CCO3)c2c1 [Compound 440, 2-[(3-{2-[(4-chloro-2-fluorophenoxy)methyl]-5-fluoropyridin-4-yl}-2,5-dihydro-1H-pyrrol-1-yl)methyl]-1-{[(2S)-oxetan-2-yl]methyl}-1H-1,3-benzodiazole-6-carboxylic acid] | < 50 nM |
| O=C(O)c1cc(F)c2nc(CN3CC[C@@H](c4cccc(COc5ccc(Cl)cc5F)n4)C3)n(C[C@@H]3CCO3)c2c1 [Compound 441, 2-{[(3R)-3-{6-[(4-chloro-2-fluorophenoxy)methyl]pyridin-2-yl}pyrrolidin-1-yl]methyl}-4-fluoro-1-{[(2S)-oxetan-2-yl]methyl}-1H-1,3-benzodiazole-6-carboxylic acid] | 50 to 500 nM |
| O=C(O)c1cc(F)c2nc(CN3CC[C@H](c4cccc(COc5ccc(Cl)cc5F)n4)C3)n(C[C@@H]3CCO3)c2c1 [Compound 442, 2-{[(3S)-3-{6-[(4-chloro-2-fluorophenoxy)methyl]pyridin-2-yl}pyrrolidin-1-yl]methyl}-4-fluoro-1-{[(2S)-oxetan-2-yl]methyl}-1H-1,3-benzodiazole-6-carboxylic acid] | < 50 nM |
| N#Cc1ccc(OCc2cc([C@@H]3CCN(Cc4nc5ccc(C(=O)O)cc5n4C[C@@H]4CCO4)C3)ccc2F)c(F)c1 [Compound 443, 2-{[(3S)-3-{3-[(4-cyano-2-fluorophenoxy)methyl]-4-fluorophenyl}pyrrolidin-1-yl]methyl}-1-{[(2S)-oxetan-2-yl]methyl}-1H-1,3-benzodiazole-6-carboxylic acid] | < 50 nM |
| N#Cc1ccc(OCc2cccc([C@H]3CCN(Cc4nc5c(F)cc(C(=O)O)cc5n4C[C@@H]4CCO4)C3)c2)c(F)c1 [Compound 444, 2-{[(3R)-3-{3-[(4-cyano-2-fluorophenoxy)methyl]phenyl}pyrrolidin-1-yl]methyl}-4-fluoro-1-{[(2S)-oxetan-2-yl]methyl}-1H-1,3-benzodiazole-6-carboxylic acid] | > 500 nM |
| N#Cc1ccc(OCc2cccc([C@@H]3CCN(Cc4nc5c(F)cc(C(=O)O)cc5n4C[C@@H]4CCO4)C3)c2)c(F)c1 [Compound 445, 2-{[(3S)-3-{3-[(4-cyano-2-fluorophenoxy)methyl]phenyl}pyrrolidin-1-yl]methyl}-4-fluoro-1-{[(2S)-oxetan-2-yl]methyl}-1H-1,3-benzodiazole-6-carboxylic acid] | < 50 nM |
| O=C(O)c1ccc2nc(CN3CC[C@@H](c4ccc(F)c(COc5ccc(Cl)cc5F)c4)C3)n(C[C@@H]3CCO3)c2c1 [Compound 446, 2-{[(3S)-3-{3-[(4-chloro-2-fluorophenoxy)methyl]-4-fluorophenyl}pyrrolidin-1-yl]methyl}-1-{[(2S)-oxetan-2-yl]methyl}-1H-1,3-benzodiazole-6-carboxylic acid] | < 50 nM |
| N#Cc1cc(F)ccc1OCc1cc([C@@H]2CCN(Cc3nc4ccc(C(=O)O)cc4n3C[C@@H]3CCO3)C2)ccc1F [Compound 447, 2-{[(3S)-3-{3-[(2-cyano-4-fluorophenoxy)methyl]-4-fluorophenyl}pyrrolidin-1-yl]methyl}-1-{[(2S)-oxetan-2-yl]methyl}-1H-1,3-benzodiazole-6-carboxylic acid] | < 50 nM |
| O=C(O)c1ccc2nc(CN3CC[C@H](c4ccc(F)c(COc5ccc(Cl)cc5F)c4)C3)n(C[C@@H]3CCO3)c2c1 [Compound 448, 2-{[(3R)-3-{3-[(4-chloro-2-fluorophenoxy)methyl]-4-fluorophenyl}pyrrolidin-1-yl]methyl}-1-{[(2S)-oxetan-2-yl]methyl}-1H-1,3-benzodiazole-6-carboxylic acid] | 50 to 500 nM |
| N#Cc1ccc(OCc2cc([C@@H]3CCN(Cc4nc5c(F)cc(C(=O)O)cc5n4C[C@@H]4CCO4)C3)ccc2F)c(F)c1 [Compound 450, 2-{[(3S)-3-{3-[(4-cyano-2-fluorophenoxy)methyl]-4-fluorophenyl}pyrrolidin-1-yl]methyl}-4-fluoro-1-{[(2S)-oxetan-2-yl]methyl}-1H-1,3-benzodiazole-6-carboxylic acid] | < 50 nM |
| O=C(O)c1cc(F)c2nc(CN3CC=C(c4nc(COc5ccc(Cl)cc5Cl)ccc4F)C3)n(C[C@@H]3CCO3)c2c1 [Compound 451, 2-[(3-{6-[(2,4-dichlorophenoxy)methyl]-3-fluoropyridin-2-yl}-2,5-dihydro-1H-pyrrol-1-yl)methyl]-4-fluoro-1-{[(2S)-oxetan-2-yl]methyl}-1H-1,3-benzodiazole-6-carboxylic acid] | < 50 nM |
| O=C(O)c1cc(F)c2nc(CN3CC=C(c4cc(COc5ccc(Cl)cc5F)ncc4F)C3)n(C[C@@H]3CCO3)c2c1 [Compound 452] | < 50 nM |
| O=C(O)c1cc(F)c2nc(CN3CC[C@@H](c4ccc(F)c(COc5ccc(Cl)cc5F)n4)C3)n(C[C@@H]3CCO3)c2c1 [Compound 453, 2-{[(3R)-3-{6-[(4-chloro-2-fluorophenoxy)methyl]-5-fluoropyridin-2-yl}pyrrolidin-1-yl]methyl}-4-fluoro-1-{[(2S)-oxetan-2-yl]methyl}-1H-1,3-benzodiazole-6-carboxylic acid] | < 50 nM |
| N#Cc1ccc(OCc2nc([C@@H]3CCN(Cc4nc5c(F)cc(C(=O)O)cc5n4C[C@@H]4CCO4)C3)ccc2F)c(F)c1 [Compound 454, 2-{[(3R)-3-{6-[(4-cyano-2-fluorophenoxy)methyl]-5-fluoropyridin-2-yl}pyrrolidin-1-yl]methyl}-4-fluoro-1-{[(2S)-oxetan-2-yl]methyl}-1H-1,3-benzodiazole-6-carboxylic acid] | < 50 nM |

The remaining lines, values ahead:

| EC50 | Compound |
| --- | --- |
| < 50 nM | O=C(O)c1cc(F)c2nc(CN3CC[C@@H](c4ccnc(COc5ccc(Cl)cc5F)c4)C3)n(C[C@@H]3CCO3)c2c1 [Compound 428, 2-{[(3S)-3-{2-[(4-chloro-2-fluorophenoxy)methyl]pyridin-4-yl}pyrrolidin-1-yl]methyl}-4-fluoro-1-{[(2S)-oxetan-2-yl]methyl}-1H-1,3-benzodiazole-6-carboxylic acid] |
| < 50 nM | N#CCC1(Cn2c(CN3CC=C(c4ccc(F)c(COc5ccc(Cl)cc5F)n4)C3)nc3ccc(C(=O)O)cc32)CC1 [Compound 429, 2-[(3-{6-[(4-chloro-2-fluorophenoxy)methyl]-5-fluoropyridin-2-yl}-2,5-dihydro-1H-pyrrol-1-yl)methyl]-1-{[1-(cyanomethyl)cyclopropyl]methyl}-1H-1,3-benzodiazole-6-carboxylic acid] |
| < 50 nM | N#CCC1(Cn2c(CN3CC=C(c4ccc(F)c(COc5ccc(Cl)cc5F)n4)C3)nc3c(F)cc(C(=O)O)cc32)CC1 [Compound 430, 2-[(3-{6-[(4-chloro-2-fluorophenoxy)methyl]-5-fluoropyridin-2-yl}-2,5-dihydro-1H-pyrrol-1-yl)methyl]-1-{[1-(cyanomethyl)cyclopropyl]methyl}-4-fluoro-1H-1,3-benzodiazole-6-carboxylic acid] |
| < 50 nM | N#CCC1(Cn2c(CN3CC[C@@H](c4ccnc(COc5ccc(Cl)cc5F)c4)C3)nc3ccc(C(=O)O)cc32)CC1 [Compound 431, 2-{[(3S)-3-{2-[(4-chloro-2-fluorophenoxy)methyl]pyridin-4-yl}pyrrolidin-1-yl]methyl}-1-{[1-(cyanomethyl)cyclopropyl]methyl}-1H-1,3-benzodiazole-6-carboxylic acid] |
| < 50 nM | N#CCC1(Cn2c(CN3CC[C@@H](c4ccnc(COc5ccc(Cl)cc5F)c4)C3)nc3c(F)cc(C(=O)O)cc32)CC1 [Compound 432, 2-{[(3S)-3-{2-[(4-chloro-2-fluorophenoxy)methyl]pyridin-4-yl}pyrrolidin-1-yl]methyl}-1-{[1-(cyanomethyl)cyclopropyl]methyl}-4-fluoro-1H-1,3-benzodiazole-6-carboxylic acid] |
| < 50 nM | O=C(O)c1ccc2nc(CN3CC=C(c4nc(COc5ccc(Cl)cc5F)ccc4F)C3)n(C[C@@H]3CCO3)c2c1 [Compound 436] |
| < 50 nM | O=C(O)c1cc(F)c2nc(CN3CC=C(c4nc(COc5ccc(Cl)cc5F)ccc4F)C3)n(C[C@@H]3CCO3)c2c1 [Compound 437, 2-[(3-{6-[(4-chloro-2-fluorophenoxy)methyl]-3-fluoropyridin-2-yl}-2,5-dihydro-1H-pyrrol-1-yl)methyl]-4-fluoro-1-{[(2S)-oxetan-2-yl]methyl}-1H-1,3-benzodiazole-6-carboxylic acid] |
| < 50 nM | N#CCC1(Cn2c(CN3CC=C(c4nc(COc5ccc(Cl)cc5F)ccc4F)C3)nc3ccc(C(=O)O)cc32)CC1 [Compound 438, 2-[(3-{6-[(4-chloro-2-fluorophenoxy)methyl]-3-fluoropyridin-2-yl}-2,5-dihydro-1H-pyrrol-1-yl)methyl]-1-{[1-(cyanomethyl)cyclopropyl]methyl}-1H-1,3-benzodiazole-6-carboxylic acid] |
